Consider 3 molecules from US20260285877A1, “Macrocyclic EGFR Inhibitor, and Preparation Method Therefor and Pharmaceutical Use Thereof” (Abbisko Therapeutics Co., Ltd., priority 2022, published 2026).

The structures appear in SMILES notation.

As a reminder, the IC50 is the concentration needed to halve the response being measured. Lower therefore signals inhibition by little substance.

For series [1] the following is noted: phase III FLAURA, compared with first-generation EGFR TKIs; cited from earlier work.
The nature of series [2]: Pharmacokinetic experiment in mice. Type of series: in vivo. As to conditions: mouse, plasma; ICR mice, PO 10 mg/kg (IV 2 mg/kg); read-out: Oral F. The source says:
The purpose of this trial is to study the pharmacokinetic behavior of some compounds of the present invention, and the administration method is: Single oral administration (PO) to ICR mice. The compounds used in this trial are from the compounds in the specific examples of the present invention and the listed positive compounds. ICR mice male N=9 original source: Shanghai Sippr-Bk Lab Animal Co., Ltd. The compounds are weighed and dissolved in the corresponding solution (10% PG+10% Solutol®+80% pH3 citrate buffer). The mixture is then shaken well and sonicated to prepare a 1 mg/mL stock solution. Nine mice are orally administered at a dose of 10 mg/kg (or IV 2 mg/kg) after an overnight fast. About 90 μL of blood is collected via the submandibular vein per time point, heparin sodium anticoagulant is added, the sample is placed on ice after collection, and plasma is centrifuged within 1 hour (centrifugation conditions: 8,000 rpm, 6 minutes, 2-8° C.). The blood collection timepoints are 0, 0.25, 0.5, 1, 2, 4, 6, 8 and 24 h. The samples are stored in a −20° C. refrigerator. The plasma sample is 40 μL, 160 μL of ice-cold acetonitrile containing internal standard is added, vortexed for 3 minutes, and centrifuged at 11,000 rpm for 5 minutes. 100 μL of the supernatant is taken and added to 100 μL of water, 5 μL of the sample is taken and injected into LC/MS/MS for analysis.

The next series relates to A431 WT. Description: Cell proliferation assay (CellTiter-Glo), A431 WT. Type of series: cell-based. The settings on record: Homo sapiens, A-431; A431 WT cells, 72 hour incubation, CTG. As for the experimental part:
(§1) • (1) Harvest cells in a logarithmic growth phase and count the cells using a platelet counter.
(§2) • (1) Add 10 μL PBS to each well of the TO plate containing cells. • (2) Thaw the CTG reagent and equilibrate the plate to room temperature for 30 minutes. • (3) Add an equal volume of CTG solution to each well. • (4) Lyse cells by shaking on an orbital shaker for 5 minutes. • (5) Leave the plate at room temperature for 20 minutes to stabilize the luminescence signal. • (6) Read the TO fluorescence signal.
(§3) Then add 10 μL of the drug solution concentration to individual wells of the 96-well plate seeded with cells.
(§4) • (1) Thaw the CTG reagent and equilibrate the plate to room temperature for 30 minutes. • (2) Add an equal volume of CTG solution to each well. • (3) Lyse cells by shaking on an orbital shaker for 5 minutes. • (4) Leave the plate at room temperature for 20 minutes to stabilize the fluorescence signal. • (5) Read fluorescence value.
(§5) Analyze the data by using GraphPad Prism 7.0 software, and use Non-linear S-curve regression to fit the dose-response curves, to calculate the IC50 values (in nM).
In general terms: In ATP-based viability assays light output follows the ATP content of the culture.

The test system of series [3] is Ba/F3 EGFR-L858R-C797S (LC). Description: Cell proliferation assay (CellTiter-Glo), Ba/F3 EGFR-L858R-C797S. In kind it is cell-based. As to conditions: Mus musculus, BaF3; Ba/F3 EGFR-L858R-C797S cells, 72 hour incubation, CTG. How it is done:
as §1, §2, §3, §4, §5

In series [4] the test system is Ba/F3 EGFR-L858R-T790M-C797S (LTC). Put plainly: Cell proliferation assay (CellTiter-Glo), Ba/F3 EGFR-L858R-T790M-C797S. Type of series: cell-based. As to conditions: Mus musculus, BaF3; Ba/F3 EGFR-L858R-T790M-C797S cells, 72 hour incubation, CTG. How it is done:
as §1, §2, §3, §4, §5

For the molecule `C=CC(=O)Nc1cc(Nc2nccc(-c3cn(C)c4ccccc34)n2)c(OC)cc1N(C)CCN(C)C` [Osimertinib], in series [1], the overall survival is recorded as 38.6 months and the progression-free survival is 18.9 months.

With `CCS(=O)(=O)C[C@H]1CCN(c2nn3c4cc(ncc24)Nc2ccnc(n2)-c2cnn(C)c2OCC2(CCCC2)C3)C1` [Example 35, (S)-3′-(3-((ethylsulfonyl)meth-yl)pyrrolidin-1-yl)-1′-meth-ylspiro(cyclopentane-1,6′-8-oxa-3-aza-4(6,1)-pyrazolo [4,3-c]pyridina-2(2,4)-pyri-midina-1(4,5)-pyrazolacyclo-octaphane)], the bioavailability in series [2] amounted to 81.5%.

Regarding `CC(=O)N[C@@H]1CCN(c2nn3c4cc(ncc24)Nc2ccnc(n2)-c2cnn(C)c2OCC2(CCCC2)C3)C1` [Example 49], the results for the IC50 (with A431 WT; in series [3]; in series [4]) were 926 nM, 59.9 nM and 29.6 nM, respectively.
